Data taken from patent US10913727B2, “Modulators of the integrated stress pathway” (Calico Life Sciences LLC, priority 2016, dated 2021).

Tested on: HEK293T cells carrying the ATF4 luciferase reporter
Experiment: ATF4-Luc assay, in vitro model of Vanishing Cell White Matter Disease (VWMD)
Type: cell-based
Settings: Homo sapiens, HEK-293T, 1 μg/mL tunicamycin, 7 hours, One Glo luminescence
Procedure, shortened: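 Compound at 200 nM and tunicamycin at 1 μg/mL were given together for 7 h to HEK293T cells stably transduced with an ATF4 5′-UTR-driven firefly luciferase reporter. Read-out by luminescence, reported as EC50.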

Row | Structure (SMILES) | EC50 [nM]
1 | O=C(COc1ccc(Cl)c(F)c1)NC12CCC(NC(=O)c3ccc(OC(F)(F)F)cn3)(CC1)CC2O (stereo not drawn) [Compound 480, N-{4-[2-(4-chloro-3-fluorophenoxy)acetamido]-3-hydroxybicyclo[2.2.2]octan-1-yl}-5-(trifluoromethoxy)pyridine-2-carboxamide] | < 50
2 | O=C(COc1ccc(Cl)c(F)c1)NC12CC(NC(=O)c3cc(-n4cncn4)ccn3)(C1)C2 [Compound 481, N-{3-[2-(4-chloro-3-fluorophenoxy)acetamido]bicyclo[1.1.1]pentan-1-yl}-4-(1H-1,2,4-triazol-1-yl)pyridine-2-carboxamide] | 1000 to 2000
3 | O=C(COc1ccc(Cl)c(F)c1)NC12CC(NC(=O)c3cnc4ccccc4n3)(C1)C2 [Compound 482, N-{3-[2-(4-chloro-3-fluorophenoxy)acetamido]bicyclo[1.1.1]pentan-1-yl}quinoxaline-2-carboxamide] | < 50
4 | O=C(COc1ccc(Cl)c(F)c1)NC12CCC(NC(=O)c3ccccc3F)(CC1)[C@@H](O)C2 [Compound 483, N-{(2S)-4-[2-(4-chloro-3-fluorophenoxy)acetamido]-2-hydroxybicyclo[2.2.2]octan-1-yl}-2-fluorobenzamide] | 50 to 250
5 | O=C(COc1ccc(Cl)c(F)c1)NC12CCC(NC(=O)c3ccccc3)(CC1)[C@@H](O)C2 [Compound 484, N-{(2S)-4-[2-(4-chloro-3-fluorophenoxy)acetamido]-2-hydroxybicyclo[2.2.2]octan-1-yl}benzamide] | 50 to 250
6 | Cc1nc(C(=O)NC23CCC(NC(=O)COc4ccc(Cl)c(F)c4)(CC2)C(O)C3)n[nH]1 (stereo not drawn) [Compound 487, N-{4-[2-(4-chloro-3-fluorophenoxy)acetamido]-3-hydroxybicyclo[2.2.2]octan-1-yl}-5-methyl-1H-1,2,4-triazole-3-carboxamide] | < 50
7 | O=C(COc1ccc(Cl)c(F)c1)NC12CCC(NC(=O)c3cccc(F)c3)(CC1)[C@@H](O)C2 [Compound 488, N-{(2S)-4-[2-(4-chloro-3-fluorophenoxy)acetamido]-2-hydroxybicyclo[2.2.2]octan-1-yl}-3-fluorobenzamide] | 50 to 250
8 | O=C(COc1ccc(Cl)c(F)c1)NC12CCC(NC(=O)c3ccc(F)cc3)(CC1)[C@@H](O)C2 [Compound 489, N-{(2S)-4-[2-(4-chloro-3-fluorophenoxy)acetamido]-2-hydroxybicyclo[2.2.2]octan-1-yl}-4-fluorobenzamide] | 50 to 250
9 | O=C(COc1ccc(Cl)c(F)c1)NC12CC(Nc3cccc4cnccc34)(C1)C2 [Compound 490, 2-(4-chloro-3-fluorophenoxy)-N-{3-[(isoquinolin-5-yl)amino]bicyclo[1.1.1]pentan-1-yl}acetamide] | 50 to 250
10 | CN1CCc2c(cccc2NC23CC(NC(=O)COc4ccc(Cl)c(F)c4)(C2)C3)C1 [Compound 491, 2-(4-chloro-3-fluorophenoxy)-N-{3-[(2-methyl-1,2,3,4-tetrahydroisoquinolin-5-yl)amino]bicyclo[1.1.1]pentan-1-yl}acetamide] | > 2000
11 | Cn1cc2c(NC34CC(NC(=O)COc5ccc(Cl)c(F)c5)(C3)C4)nccc2n1 [Compound 492, 2-(4-chloro-3-fluorophenoxy)-N-{3-[(2-methyl-2H-pyrazolo[4,3-c]pyridin-4-yl)amino]bicyclo[1.1.1]pentan-1-yl}acetamide] | 50 to 250
12 | Cn1cc2ccnc(NC34CC(NC(=O)COc5ccc(Cl)c(F)c5)(C3)C4)c2n1 [Compound 493, 2-(4-chloro-3-fluorophenoxy)-N-{3-[(2-methyl-2H-pyrazolo[3,4-c]pyridin-7-yl)amino]bicyclo[1.1.1]pentan-1-yl}acetamide] | 50 to 250
13 | Cc1cc2c(NC34CC(NC(=O)COc5ccc(Cl)c(Cl)c5)(C3)C4)nccn2n1 [Compound 494, 2-(3,4-dichlorophenoxy)-N-{3-[(2-methylpyrazolo[1,5-a]pyrazin-4-yl)amino]bicyclo[1.1.1]pentan-1-yl}acetamide] | < 50
14 | Cc1cc2c(NC34CC(NC(=O)COc5cc(F)c(F)c(F)c5)(C3)C4)nccn2n1 [Compound 495, N-{3-[(2-methylpyrazolo[1,5-a]pyrazin-4-yl)amino]bicyclo[1.1.1]pentan-1-yl}-2-(3,4,5-trifluorophenoxy)acetamide] | 250 to 1000
15 | Cc1cc2c(NC34CC(NC(=O)COc5ccc(OC(F)(F)F)c(F)c5)(C3)C4)nccn2n1 [Compound 496, 2-[3-fluoro-4-(trifluoromethoxy)phenoxy]-N-{3-[(2-methylpyrazolo[1,5-a]pyrazin-4-yl)amino]bicyclo[1.1.1]pentan-1-yl}acetamide] | 50 to 250
16 | Cc1nc(C(=O)NC23CCC(NC(=O)COc4ccc(Cl)c(F)c4)(CC2)[C@H](O)C3)c(C)s1 [Compound 497, N-{(3R)-4-[2-(4-chloro-3-fluorophenoxy)acetamido]-3-hydroxybicyclo[2.2.2]octan-1-yl}-2,5-dimethyl-1,3-thiazole-4-carboxamide] | 250 to 1000
17 | Cc1nn(C)c(C(=O)NC23CCC(NC(=O)COc4ccc(Cl)c(F)c4)(CC2)C[C@@H]3O)c1F [Compound 498, N-{(2S)-4-[2-(4-chloro-3-fluorophenoxy)acetamido]-2-hydroxybicyclo[2.2.2]octan-1-yl}-4-fluoro-1,3-dimethyl-1H-pyrazole-5-carboxamide] | < 50

Row | Structure (SMILES) | EC50 [nM]
18 | Cc1nn(C)c(C(=O)NC23CC(NC(=O)COc4ccc(Cl)c(F)c4)(C2)C3)c1F [Compound 499, N-{3-[2-(4-chloro-3-fluorophenoxy)acetamido]bicyclo[1.1.1]pentan-1-yl}-4-fluoro-1,3-dimethyl-1H-pyrazole-5-carboxamide] | < 50
19 | Cc1nn(C)c(C(=O)NC23CC(NC(=O)COc4ccc(Cl)c(Cl)c4)(C2)C3)c1F [Compound 500, N-{3-[2-(3,4-dichlorophenoxy)acetamido]bicyclo[1.1.1]pentan-1-yl}-4-fluoro-1,3-dimethyl-1H-pyrazole-5-carboxamide] | < 50
20 | CC(=O)c1ccnc(C(=O)NC23CC(NC(=O)COc4ccc(Cl)c(F)c4)(C2)C3)c1 [Compound 501, 4-acetyl-N-{3-[2-(4-chloro-3-fluorophenoxy)acetamido]bicyclo[1.1.1]pentan-1-yl}pyridine-2-carboxamide] | 1000 to 2000
21 | CCCc1nc(C(=O)NC23CCC(NC(=O)COc4ccc(Cl)c(F)c4)(CC2)C(O)C3)cs1 (stereo not drawn) [Compound 502, N-{4-[2-(4-chloro-3-fluorophenoxy)acetamido]-3-hydroxybicyclo[2.2.2]octan-1-yl}-2-propyl-1,3-thiazole-4-carboxamide] | < 50
22 | Cc1noc(C(=O)NC23CCC(NC(=O)COc4ccc(Cl)c(F)c4)(CC2)C(O)C3)n1 (stereo not drawn) [Compound 503, N-{4-[2-(4-chloro-3-fluorophenoxy)acetamido]-3-hydroxybicyclo[2.2.2]octan-1-yl}-3-methyl-1,2,4-oxadiazole-5-carboxamide] | 50 to 250
23 | Cc1nc(C(F)(F)F)c(C(=O)NC23CCC(NC(=O)COc4ccc(Cl)c(F)c4)(CC2)C(O)C3)s1 (stereo not drawn) [Compound 504, N-{4-[2-(4-chloro-3-fluorophenoxy)acetamido]-3-hydroxybicyclo[2.2.2]octan-1-yl}-2-methyl-4-(trifluoromethyl)-1,3-thiazole-5-carboxamide] | 50 to 250
24 | CC(=O)Nc1c(C)nn(C)c1C(=O)NC12CCC(NC(=O)COc3ccc(Cl)c(F)c3)(CC1)C(O)C2 (stereo not drawn) [Compound 505, 4-acetamido-N-{4-[2-(4-chloro-3-fluorophenoxy)acetamido]-3-hydroxybicyclo[2.2.2]octan-1-yl}-1,3-dimethyl-1H-pyrazole-5-carboxamide] | > 2000
25 | Cc1cc(C(=O)NC23CCC(NC(=O)COc4ccc(Cl)c(F)c4)(CC2)C[C@@H]3O)n(C)n1 [Compound 506, N-{(2S)-4-[2-(4-chloro-3-fluorophenoxy)acetamido]-2-hydroxybicyclo[2.2.2]octan-1-yl}-1,3-dimethyl-1H-pyrazole-5-carboxamide] | 50 to 250
26 | O=C(COc1ccc(Cl)c(F)c1)NC12CC(NC(=O)c3ccccc3F)(C1)C2 [Compound 507, N-{3-[2-(4-chloro-3-fluorophenoxy)acetamido]bicyclo[1.1.1]pentan-1-yl}-2-fluorobenzamide] | 250 to 1000
27 | O=C(COc1ccc(Cl)c(F)c1)NC12CC(NC(=O)c3cccc(F)c3)(C1)C2 [Compound 508, N-{3-[2-(4-chloro-3-fluorophenoxy)acetamido]bicyclo[1.1.1]pentan-1-yl}-3-fluorobenzamide] | 50 to 250
28 | O=C(COc1ccc(Cl)c(F)c1)NC12CC(NC(=O)c3cccc(F)c3F)(C1)C2 [Compound 509, N-{3-[2-(4-chloro-3-fluorophenoxy)acetamido]bicyclo[1.1.1]pentan-1-yl}-2,3-difluorobenzamide] | 250 to 1000
29 | O=C(COc1ccc(Cl)c(F)c1)NC12CC(NC(=O)c3cc(F)ccc3F)(C1)C2 [Compound 510, N-{3-[2-(4-chloro-3-fluorophenoxy)acetamido]bicyclo[1.1.1]pentan-1-yl}-2,5-difluorobenzamide] | 250 to 1000
30 | O=C(COc1ccc(Cl)c(F)c1)NC12CC(NC(=O)c3ccc(F)cc3F)(C1)C2 [Compound 511, N-{3-[2-(4-chloro-3-fluorophenoxy)acetamido]bicyclo[1.1.1]pentan-1-yl}-2,4-difluorobenzamide] | 250 to 1000
31 | O=C(COc1ccc(Cl)c(F)c1)NC12CC(NC(=O)c3c(F)cccc3F)(C1)C2 [Compound 512, N-{3-[2-(4-chloro-3-fluorophenoxy)acetamido]bicyclo[1.1.1]pentan-1-yl}-2,6-difluorobenzamide] | > 2000
32 | O=C(COc1ccc(Cl)c(F)c1)NC12CC(NC(=O)c3cc(F)cc(F)c3)(C1)C2 [Compound 513, N-{3-[2-(4-chloro-3-fluorophenoxy)acetamido]bicyclo[1.1.1]pentan-1-yl}-3,5-difluorobenzamide] | 50 to 250
33 | O=C(COc1ccc(Cl)c(F)c1)NC12CC(NC(=O)c3ccc(F)c(F)c3)(C1)C2 [Compound 514, N-{3-[2-(4-chloro-3-fluorophenoxy)acetamido]bicyclo[1.1.1]pentan-1-yl}-3,4-difluorobenzamide] | 50 to 250
